Reference: US20260216326A1, “METHODS OF TREATING INFLAMMATORY DISEASES WITH COMBINATION OF TL1A INHIBITORS AND S1PR INHIBITORS” (Prometheus Biosciences, Inc., priority 2022, published 2026)
Entries after “also recorded” stand apart in the source; their conditions may differ. Read-outs that look alike come from different tables or passages of the source.

How the values were obtained:
[1] = target: sphingosine-1-phosphate receptor 1 (S1P1) (Homo sapiens, UniProt P21453); settings: binding; cited from earlier work
Chain of sphingosine-1-phosphate receptor 1 (S1P1) (P21453 whole entry, species assumed): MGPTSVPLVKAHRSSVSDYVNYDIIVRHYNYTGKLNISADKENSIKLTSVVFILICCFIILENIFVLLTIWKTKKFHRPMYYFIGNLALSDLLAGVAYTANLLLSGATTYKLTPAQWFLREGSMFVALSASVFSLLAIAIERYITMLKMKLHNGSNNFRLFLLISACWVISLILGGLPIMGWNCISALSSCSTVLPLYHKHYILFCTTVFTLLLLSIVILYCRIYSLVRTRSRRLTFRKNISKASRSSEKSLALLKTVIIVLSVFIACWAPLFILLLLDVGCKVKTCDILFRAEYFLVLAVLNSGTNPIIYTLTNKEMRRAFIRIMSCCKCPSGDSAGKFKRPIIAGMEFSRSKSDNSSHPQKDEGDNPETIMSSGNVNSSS

[2] = target: T1, S1P3 (Homo sapiens, UniProt Q99500); settings: read-out: ED50 value on S1P3; cited from earlier work
Target sequence in this assay (Q99500 whole entry, species assumed): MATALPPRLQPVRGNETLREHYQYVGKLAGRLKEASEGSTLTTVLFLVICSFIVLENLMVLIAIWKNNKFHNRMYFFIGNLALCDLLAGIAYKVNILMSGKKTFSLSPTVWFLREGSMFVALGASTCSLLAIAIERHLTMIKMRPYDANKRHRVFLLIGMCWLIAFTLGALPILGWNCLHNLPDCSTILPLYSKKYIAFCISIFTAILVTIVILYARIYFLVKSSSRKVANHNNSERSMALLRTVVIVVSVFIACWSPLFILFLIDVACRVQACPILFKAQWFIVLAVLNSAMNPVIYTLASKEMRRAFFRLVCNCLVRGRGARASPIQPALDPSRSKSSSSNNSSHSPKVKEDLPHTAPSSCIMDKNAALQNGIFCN

[3] = target: T2, S1P1 (Homo sapiens, UniProt P21453); settings: read-out: ED50 value, agonistic activity on S1P1; cited from earlier work
T2 sequence (P21453 whole entry, species assumed): as the sequence (P21453 whole entry, species assumed) above

[4] = target: T1, S1P3; settings: cited from earlier work
Target sequence in this assay (Q99500 whole entry, species assumed): as the sequence (Q99500 whole entry, species assumed) above

[5] = target: T2, S1P1; settings: cited from earlier work
[6] = tested on: peripheral lymphocytes; settings: mice, 24 h after oral dosing; cited from earlier work
[7] = target: T2, S1P1; settings: cited from earlier work; remark: listed apart in the source
[8] = target: recombinant monkey S1P1 receptors; settings: read-out: EC50, agonist of S1P1 receptors; cited from earlier work
[9] = target: recombinant mouse S1P1 receptors (Mus musculus, UniProt O08530); settings: read-out: EC50, agonist of S1P1 receptors; cited from earlier work
Chain of recombinant mouse S1P1 receptors (O08530 whole entry): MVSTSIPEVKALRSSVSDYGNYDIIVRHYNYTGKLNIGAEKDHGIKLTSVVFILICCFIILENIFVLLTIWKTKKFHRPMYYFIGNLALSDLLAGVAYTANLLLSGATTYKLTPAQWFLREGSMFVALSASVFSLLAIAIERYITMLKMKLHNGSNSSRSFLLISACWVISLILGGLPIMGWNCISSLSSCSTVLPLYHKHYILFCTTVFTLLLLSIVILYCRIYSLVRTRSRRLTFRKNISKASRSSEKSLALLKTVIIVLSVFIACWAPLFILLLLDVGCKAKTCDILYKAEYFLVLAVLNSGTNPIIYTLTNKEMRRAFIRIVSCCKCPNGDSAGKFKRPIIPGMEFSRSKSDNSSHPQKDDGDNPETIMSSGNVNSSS

[10] = target: recombinant dog S1P1 receptors; settings: read-out: EC50, agonist of S1P1 receptors; cited from earlier work
[11] = target: human Sphingosine-1-phosphate receptor 2 (S1P2 or S1PR2) (Homo sapiens, UniProt O95136); settings: cited from earlier work
Chain of human Sphingosine-1-phosphate receptor 2 (S1P2 or S1PR2) (O95136 whole entry): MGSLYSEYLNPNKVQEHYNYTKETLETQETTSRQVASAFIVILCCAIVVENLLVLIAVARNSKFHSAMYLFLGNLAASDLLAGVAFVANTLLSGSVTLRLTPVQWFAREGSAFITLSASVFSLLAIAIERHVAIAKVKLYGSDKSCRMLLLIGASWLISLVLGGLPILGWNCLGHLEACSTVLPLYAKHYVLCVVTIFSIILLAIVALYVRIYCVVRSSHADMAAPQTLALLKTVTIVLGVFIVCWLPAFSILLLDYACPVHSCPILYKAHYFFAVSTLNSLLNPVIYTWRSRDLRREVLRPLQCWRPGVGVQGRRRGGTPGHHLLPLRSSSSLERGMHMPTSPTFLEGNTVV

[12] = target: human S1P5 (Homo sapiens, UniProt Q9H228); settings: cited from earlier work
Chain of human S1P5 (Q9H228 whole entry): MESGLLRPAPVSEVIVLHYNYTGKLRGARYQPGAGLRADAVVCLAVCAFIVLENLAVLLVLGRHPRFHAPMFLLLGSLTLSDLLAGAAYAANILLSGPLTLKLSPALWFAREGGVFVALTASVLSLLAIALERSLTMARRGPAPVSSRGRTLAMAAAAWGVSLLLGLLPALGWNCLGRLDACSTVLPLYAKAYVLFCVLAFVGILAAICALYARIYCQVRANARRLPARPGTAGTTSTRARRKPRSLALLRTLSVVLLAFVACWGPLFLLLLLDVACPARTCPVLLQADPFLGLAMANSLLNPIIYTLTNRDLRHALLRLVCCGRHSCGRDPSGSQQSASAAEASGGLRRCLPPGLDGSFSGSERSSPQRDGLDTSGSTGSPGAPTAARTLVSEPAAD

[13] = target: T3, S1P4 (Homo sapiens, UniProt O95977); settings: cited from earlier work
T3 sequence (O95977 1-384): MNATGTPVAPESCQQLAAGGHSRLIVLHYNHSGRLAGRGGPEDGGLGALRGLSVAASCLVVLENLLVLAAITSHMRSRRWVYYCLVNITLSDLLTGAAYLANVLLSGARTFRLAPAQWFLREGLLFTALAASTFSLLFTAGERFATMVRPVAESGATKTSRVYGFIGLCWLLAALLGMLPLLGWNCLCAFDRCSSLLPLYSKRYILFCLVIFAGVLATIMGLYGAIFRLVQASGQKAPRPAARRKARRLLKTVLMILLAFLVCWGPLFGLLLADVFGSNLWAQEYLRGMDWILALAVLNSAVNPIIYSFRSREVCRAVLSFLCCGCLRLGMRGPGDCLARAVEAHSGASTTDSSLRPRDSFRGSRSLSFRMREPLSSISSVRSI

[14] = target: T1, S1P3; settings: cited from earlier work; remark: listed apart in the source
Target sequence in this assay (Q99500 whole entry): as the sequence (Q99500 whole entry, species assumed) above

[15] = target: T1, S1P3; settings: cited from earlier work; remark: listed apart in the source
Target sequence in this assay (Q99500 whole entry, species assumed): as above

[16] = target: T3, S1P4; settings: cited from earlier work; remark: listed apart in the source
[17] = target: S1P2 (Homo sapiens, UniProt O95136); settings: cited from earlier work
Chain of S1P2 (O95136 whole entry, species assumed): as the sequence (O95136 whole entry) above

[18] = tested on: IL10−/− mice; assay: IL10−/− model of murine colitis; type: in vivo, mouse
Experimental: IL10−/− and WT mice on the C57BL/6 background are monitored for body weight every other day. IL10−/− mice begins to manifest symptoms of colitis by 4 weeks of age compared with WT mice, including diarrhea and weight loss greater than 5%. Treatment protocols are initiated when the mice are between 14-18 weeks of age.
By 14−18 weeks of age, IL10−/− mice develop sufficiently severe symptoms of disease to being testing therapeutic treatments. For four weeks, mice are treated weekly with Intraperitoneal (I.P.) anti-TL1a injection and daily with oral FTY720 (S1PR inhibitor, anti-S1PR) according to Table 61. Group 1 serves as the naïve control and Group 2 is treated with isotype and vehicle controls. Groups 3 and 4 test the high dose of either TL1a or S1PR blockade, respectively. Groups 5 and 6 test the low dose of either TL1a or S1PR blockade. Groups 7 and 8 test the high and low dose combination therapies, respectively.
(§1) At day 28 after initiation of treatment, mice are anaesthetized and bled by cardiac puncture. Blood is kept on ice for 30 minutes and then spun down to separate the serum, which is stored at −80 C for cytokine measurement by MSD. After the terminal bleed, mice are euthanized by CO2 overdose per IACUC guidelines. Colons are harvested for each mouse and measured for length and weight. 1 cm of the middle colon is collected into RNAlater, and kept at room temperature for 2 hours prior to freezing at −80 C. The colonic tissue preserved in RNAlater is processed for mRNA and subjected to bulk RNA sequencing and standard differential gene expression analysis. The remainder of the proximal and distal colon is preserved in 10% NBF at room temperature for 48 hours prior to moving to 70% ethanol. These preserved colonic tissues are sectioned and stained by H&E prior to analysis by a veterinary pathologist for clinical signs of colitis.

[19] = tested on: Rag2−/− mice receiving CD4+CD45RB+ T cells; assay: T cell transfer model of murine colitis; type: in vivo, mouse
Source text: The murine T cell transfer model of colitis is used to test the synergistic effect of blocking TL1A and S1P on the development of colitis using a mouse-specific TL1A antibody (anti-TL1A) and S1PR functional antagonist (FTY720). To initiate colitis, CD4+CD45RB+ T cells from the spleens of C57BL/6 mice are sorted to >95% purity and transferred by I.V. injection to Rag2−/− mice lacking mature B and T cells (0.5e6 cells/mouse), which are then randomized by weight on day 0. Mice are weighed and monitored for signs of disease every other day for 7 weeks.
One day prior to the initiation of disease (day-1) and weekly throughout the course of the experiment, mice are treated with a single I.P. injection of anti-TL1A in 0.2 ml total volume according to Table 64. In addition, FTY720 or the appropriate vehicle control is orally dosed daily according to Table 64. Group 1 serve as the naïve control and Group 2 is treated with isotype control antibodies. Groups 3 and 4 test the high dose of either anti-TL1A or FTY720, respectively. Groups 5 and 6 test the low dose of either anti-TL1A or FTY720. Groups 7 and 8 test the high and low dose combination therapies, respectively.
as §1, with “49” for “28”, “disease induction with CD4+CD45RB+ T cell transfer,” for “initiation of treatment,”, “and” for “and standard”, “These preserved colonic tissues are sectioned and stained by H&E prior to analysis by a veterinary pathologist for clinical signs of colitis.” left out

[20] = tested on: CD20-expressing Raji cell; assay: CDC positive control with Rituxan; type: cell-based, human
Experimental: Test articles were evaluated for CDC activity, compared to negative control Human IgG4 isotype control, on TL1A-expressing HEK293 target cells. Rituxan (anti-CD20) was used as a positive technical control on CD20-expressing Raji cell. All test articles were used at a final top concentration of 10 μg/mL followed by a five-fold dilution series (7 points total), in addition to a no treatment control, in triplicate. Cells were incubated with test articles for 15 minutes at 37 C, then treated with human complement, at a final concentration of 25%, for 3 hours at 37 C, 5% CO2. Following incubation, cells were washed and resuspended in Propidium Iodide (P.I.) at a final concentration of 5 μg/mL prior to flow cytometry analysis. Total cells were examined by flow cytometry during sample acquisition. Data were plotted on an XY chart, graphing percentage P.I. positive cells against the log of the concentration and fit to a non-linear regression curve. Cell cytotoxicity in the presence of all test articles was not distinguishable from cell cytotoxicity in the presence of isotype control (Table 12).

[21] = tested on: human whole blood; assay: Human cytokine release assay, whole blood; type: cell-based

Compound: NC(CO)(CO)CCc1ccc(Sc2cccc(OCc3ccccc3)c2)cc1Cl [mocravimod, 2-amino-2-{2-[4-(3-benzyloxyphenylthio)-2-chlorophenyl]ethyl}-1,3-propanediol]
- selectivity for S1P1 over S1P2 and S1P5 [1]: 100 fold
- EC50 [2]: > 1000 nM
- EC50 [3]: 0.84 nM

Compound: CCC/N=C1\S/C(=C\c2ccc(OC[C@H](O)CO)c(Cl)c2)C(=O)N1c1ccccc1C [ponesimod, (2Z,5Z)-5-[3-chloro-4-[(2R)-2,3-dihydroxypropoxy]benzylidene]-3-(2-methylphenyl)-2-(propylimino)-1,3-thiazolidin-4-one]
- potency for S1P3, lower compared with the natural ligand [4]: 150 fold
- S1P1 selectivity, higher compared with the natural ligand ([5]; S1P1 versus S1P3): approximately 650 fold
- potency for S1P1, higher compared with the natural ligand ([5]; compared with the natural ligand): 4.4
- EC50 ([5]; read-out: half maximal effective concentration (EC50), S1P1 activation): 5.7 nM

Compound: CCCc1ccc(COc2ccc3c(c2)CCC(CN2CC(C(=O)O)C2)=C3C)c(OC)c1 [ceralifimod, 1-({6-[(2-methoxy-4-propylbenzyl)oxy]-1-methyl-3,4-dihydronaphthalen-2-yl}methyl) azetidine-3-carboxylic acid]
- ED50, peripheral lymphocyte lowering (PLL) test [6]: 0.029 mg/kg
- selectivity for S1P1 over S1P3 [7]: > 30 000 fold

Compound: O=C(O)C[C@H]1CCc2c1[nH]c1ccc(OCc3ccc(C4CCCC4)c(C(F)(F)F)c3)cc21 [etrasimod, (R)-2-(7-(4-cyclopentyl-3-(trifluoromethyl)benzyloxy)-1,2,3,4-tetrahydrocyclopenta[b]indol-3-yl) acetic acid]
- EC50 [8]: 8.7 nM
- EC50 [9]: 3.65 nM
- EC50 [10]: 4.19 nM
- agonist or antagonist activity [11]: neither agonist nor antagonist activity was observed
- relative efficacy, % of S1P response [12]: 73%
- relative efficacy, % of S1P response [13]: 63%
- agonist or antagonist activity [14]: neither agonist nor antagonist activity was observed

Compound: CCCCCCCOc1ccc(CCC(N)(CO)CO)cc1C(F)(F)F [amiselimod, 2-amino-2-{2-[4-(heptyloxy)-3-(trifluoromethyl)phenyl]ethyl}propan-1,3-diol]
- agonist activity for S1P3 [15]: no distinct agonist activity
- agonist activity for S1P4 [16]: minimal agonist activity
- agonist activity for S1P2 [17]: no distinct agonist activity

Compound: CCCCCCCCc1ccc(CCC(N)(CO)CO)cc1 [FTY720]
- disease per histopathology ([18]; colonic tissue): reduces disease per histopathology in a dose dependent manner
- serum inflammatory cytokines (MSD) ([18]; mouse, in vivo): Reduced levels of inflammatory cytokines
- body weight loss ([18]; single agents, Groups 3-6): alleviates body weight loss in a dose-dependent manner
- disease per histopathology ([19]; colonic tissue): reduces disease per histopathology in a dose dependent manner
- serum inflammatory cytokines (MSD) ([19]; mouse, in vivo): Reduced levels of inflammatory cytokines
- body weight loss ([19]; single agents, Groups 3-6): alleviates body weight loss in a dose-dependent manner

Compound: Rituxan: anti-CD20 antibody, positive control in the CDC assay
- CDC bioactivity / complement-mediated lysis [20]: CDC bioactivity was observed; also recorded: expected increase in complement-mediated lysis

Compound: Staphylococcal enterotoxin B [SEB]
- cytokine release (IL-2, IL-6, IL-10, TNF, IFN-γ) in whole blood [21]: induced IL-2, IL-6, IL-10, TNF, and IFN-γ release
